# Test system: microorganism consortium in the subterranean formation
# Experimental: Field tests were conducted on a mature coal-bed methane natural gas well in the Powder River Basin region in Wyoming. […] Total injection volume was 975,450 gallons of formation water, as well as 575.7 lbs. of sodium acetate trihydrate and 2404.7 lbs. of anhydrous sodium acetate. The effective average concentration of acetate in the injection water was 4.06 mM. In the pretreatment period, well 23M-2283 was used to access a microorganism consortium in the subterranean formation and obtain samples for microorganism population analysis.
structure (smiles),measurement,setting,value
"CC(=O)[O-].[Na+] [acetate amendment, sodium acetate]",total microbial population density,"after acetate amendment introduced in situ (effective average 4.06 mM acetate in injection water), pretreatment 4.2×10^4 cells/ml",1.5×10^6 cells/ml
same,acetoclastic methanogens as share of total archaea population,at some points during natural gas recovery operations following the two-week period,~100%
same,acetoclastic methanogens as share of total archaea,"two weeks after introduction of the amendment, pretreatment ~20%",greater than 90%
same,hydrogenotrophic methanogens as share of total archaea,"two weeks after introduction of the amendment, pretreatment ~80%",less than 10%

# — patent publication US9004162B2, “Methods of stimulating acetoclastic methanogenesis in subterranean deposits of carbonaceous material” (Transworld Technologies Inc., priority 2012, dated 2015)
